# Article PMC6669558, “Bioactive Compounds Isolated from Marine Bacterium Vibrio neocaledonicus and Their Enzyme Inhibitory Activities” (Marine Drugs, 2019)
# Where “and” joins values, the source holds several entries; their conditions need not be identical. Identical values can stand only once. Marks after values point to notes of the source that are not given here.
# Tests used:
# [1] = molecular target: T1, xanthine oxidase from bovine milk (Bos taurus, UniProt P80457); assay: Xanthine oxidase inhibition assay; format: biochemical
# T1 construct: purchased Sigma Aldrich (Shanghai, China); host or cells: bovine milk
# Source text: (§1) Acetylcholinesterase from Electrophorus electricus, alphaglucosidase from Saccharomyces cerevisiae, and xanthine oxidase from bovine milk were obtained from Sigma Aldrich (Shanghai, China). The other reagents used in the bioassays were purchased either from Solarbio or Sigma Aldrich. Analytical reagent grade organic solvents for extraction were purchased from XL Xilong Scientific Chemical. Silica gel plates (Silica gel 60 F254 0.2 mm layer thickness) were purchased from Merck (KGaA, Darmstadt, Germany). A spectrometer (Thermo Scientific Multiskan GO, Vantaa, Finland) was used for all measurements of AChE, AG and XO inhibitory activities. The venom was extracted and collected manually from the adult specimens of B. asper snakes from Colombia (South America) that were held captive in the Serpentarium at University of Antioquia. The venom was centrifuged, and the supernatant was lyophilized and frozen at −70 °C until its use.
# The assay was based on the developed method of Valentao [56] and modified for application in microplates by Lopez-Cruz. All test samples were dissolved in a 50 mM phosphate buffer to simulate the environment in which the reaction occurs in the body. […] The control contained all components except the sample. The inhibitory rate was calculated as the formula: %I = [1 − (ODs − OD sample sb)/ODn-ODnb] × 100%; where: ODn is the absorbance value of the sample system in which sample is substituted by PBS, ODnb is the absorbance value of ODn in which no XO was added, ODsb is the absorbance of ODs in which no XO was added.
# [2] = molecular target: T2, alphaglucosidase from Saccharomyces cerevisiae (Saccharomyces cerevisiae, UniProt P53341); assay: Alphaglucosidase inhibition assay (pNPG); format: biochemical; conditions: for inhibitory activity for the enzyme AG (in words): at any of the tested doses (3.125-50 µg/mL)
# T2 construct: purchased Sigma Aldrich (Shanghai, China)
# Source text: as §1
# The AG inhibition activity was evaluated by measuring the release of p-nitrophenol from p nitrophenyl-α-D-glucopyranoside (pNPG) following the protocol proposed by Pistia-Brueggemann, with modifications. […] The control (C-) contained all the reagents but the sample was substituted by PBS. […] The inhibitory rate was calculated as the formula: %I = [1 − (ODs − OD sample sb)/ODn-ODnb] × 100%; where: ODn is the absorbance value of the sample system in which sample is substituted by PBS, ODnb is the absorbance value of ODn in which no AG was added, ODsb is the absorbance of ODs in which no AG was added.
# [3] = molecular target: T3, Acetylcholinesterase from Electrophorus electricus (Electrophorus electricus, UniProt O42275); assay: Acetylcholinesterase inhibition assay (Ellman, ATCI substrate); format: biochemical
# T3 construct: purchased Sigma Aldrich (Shanghai, China)
# Source text: as §1
# AChE inhibition was determined according to the method of Ellman with ATCI as substrate. […] The control contained all components except the tested extract. The inhibitory rate was calculated as the formula: %I = [1 − (ODs−OD sample sb)/ODn-ODnb] × 100%; where: ODn is the absorbance value of the sample system in which sample is substituted by PBS, ODnb is the absorbance value of ODn in which no AChE was added, ODsb is the absorbance of ODs in which no AchE was added.
# [4] = tested on: Metalloproteinase (Batx-I); assay: Inhibition of proteolytic activity of isolated metalloproteinase on azocasein; format: biochemical, Bothrops atrox; conditions: 3 µg toxin per well
# Protocol: (§2) Batx-I was isolated from Bothrops atrox according to the protocol of Patiño. Purification was done by ion-exchange chromatography (CM Sephadex C25) and the toxin purity was tested by RP-HPLC and SDS PAGE. PLA2 was isolated from Crotalus durissus cumanensis according to the protocol of Pereañez. PLA2 was purified by RP-HPLC on C-18 column eluted at 1.0 mL/min with a gradient from 0% to 100% acetonitrile in 0.1% trifluoroacetic acid (v/v). Absorbance was monitored at 215 nm. Batx-I and Cdcum6 were lyophilized and stored at −20 °C until their use.
# The proteolytic activity was measured on azocasein (Sigma Aldrich, St. Lous, MO, USA) according to Wang with some modifications. Briefly, 3 µg of B. asper venom or Batx-I were dissolved in 5 μL of 25 mM Tris (0.15 M NaCl, 5 mM CaCl2), pH 7.4, and were mixed with different doses of indole in order to obtain 1:20, 1:10 and 1:5 w/w ratios, respectively. Mixes were pre-incubated for 30 min at 37 °C. Later, these solutions were incubated with 10 mg/mL of azocasein diluted in the same buffer. After an incubation of 90 min at 37 °C, the reaction was stopped by the addition of 200 μL of trichloroacetic acid. The samples were then centrifuged at 3000 rpm for 5 min. The supernatant (100 μL) was mixed with an equal volume of 0.5 M NaOH, and the absorbance was measured at 450 nm. Results are shown as percentage of activity (absorbance at 450 nm). […]
# B. asper venom [5] = assay: Inhibition of coagulant activity of venom (plasma clotting time); format: biochemical, Bothrops asper
# Protocol: The method described by Theakston and Reid was followed, with small modifications. Briefly, 1.0 µg of B. asper dissolved in 25 µL PBS were mixed with 75 µL of different concentrations of indole, and pre-incubated for 30 min at 37 °C. After, 100 µL of mixtures were added to 0.2 mL of plasma, and the time required for plasma coagulation was determined.
# [6] = tested on: Phospholipase A2 (Cdcum6); assay: Inhibition of PLA2 activity with 4N3OBA substrate; format: biochemical, Crotalus durissus cumanensis
# Protocol: as §2
# The inhibitory effect of indole on the PLA2 of snake venom was assessed by two methods; the first of them, using monodispersed substrate 4N3OBA (manufactured by BIOMOL, Hamburg Germany) according to the method described by Holzer and Mackessy and adapted for a 96-well ELISA plate. […] The inhibitory effect of indole on PLA2 activity was determined through pre-incubation of the enzyme with each concentration of the compound for 30 min at 37 °C. After the incubation period, the sample was added to the assay and the reaction was monitored at 425 nm for 40 min at 37 °C. The quantity of chromophore released (4-nitro-3-hydroxy benzoic acid) was proportional to the enzymatic activity. […]
# B. asper venom [7] = assay: Inhibition of indirect hemolytic activity (agarose-erythrocyte-egg yolk gels); format: biochemical, Bothrops asper; conditions: at tested doses
# Protocol: The second method to evaluate the inhibitory effect of indole on PLA2, was determining the inhibition of the indirect hemolytic activity. This was evaluated in agarose-erythrocyte-egg yolk gels according to Gutierrez. It used a minimum indirect hemolytic dose (MIHD) of B. asper venom of 2.2 μg, defined as the amount of venom that induced a 20 mm diameter hemolytic halo. Venom and different doses of indole were preincubated for 30 min at 37 °C and the inhibitory potential was measured after 20 h of plate incubation at 37 °C. This experiment was done in triplicate.
# B. asper venom [8] = assay: Inhibition of proteolytic activity of venom on azocasein; format: biochemical, Bothrops asper; conditions: 3 µg venom per well
# Source text: as §1
# The proteolytic activity was measured on azocasein (Sigma Aldrich, St. Lous, MO, USA) according to Wang with some modifications. […] The supernatant (100 μL) was mixed with an equal volume of 0.5 M NaOH, and the absorbance was measured at 450 nm. Results are shown as percentage of activity (absorbance at 450 nm). […]
# [9] = dose 50 µg/mL, listed as indole
# T2 sequence (P53341 whole entry): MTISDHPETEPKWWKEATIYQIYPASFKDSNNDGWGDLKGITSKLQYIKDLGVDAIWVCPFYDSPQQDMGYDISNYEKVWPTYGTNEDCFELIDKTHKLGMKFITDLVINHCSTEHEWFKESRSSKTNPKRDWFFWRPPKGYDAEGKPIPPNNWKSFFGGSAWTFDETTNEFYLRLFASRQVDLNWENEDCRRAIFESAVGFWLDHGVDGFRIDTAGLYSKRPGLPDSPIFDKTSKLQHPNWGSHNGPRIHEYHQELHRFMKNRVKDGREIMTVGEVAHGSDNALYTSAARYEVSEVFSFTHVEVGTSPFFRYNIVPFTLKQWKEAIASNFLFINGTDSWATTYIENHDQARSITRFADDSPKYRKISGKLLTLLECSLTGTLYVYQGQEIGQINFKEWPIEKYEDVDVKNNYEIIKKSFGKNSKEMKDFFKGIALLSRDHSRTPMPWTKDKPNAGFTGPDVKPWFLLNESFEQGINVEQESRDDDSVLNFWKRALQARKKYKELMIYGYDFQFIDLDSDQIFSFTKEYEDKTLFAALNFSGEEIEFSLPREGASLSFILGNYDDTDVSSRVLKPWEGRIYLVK
# T1 sequence (P80457 whole entry): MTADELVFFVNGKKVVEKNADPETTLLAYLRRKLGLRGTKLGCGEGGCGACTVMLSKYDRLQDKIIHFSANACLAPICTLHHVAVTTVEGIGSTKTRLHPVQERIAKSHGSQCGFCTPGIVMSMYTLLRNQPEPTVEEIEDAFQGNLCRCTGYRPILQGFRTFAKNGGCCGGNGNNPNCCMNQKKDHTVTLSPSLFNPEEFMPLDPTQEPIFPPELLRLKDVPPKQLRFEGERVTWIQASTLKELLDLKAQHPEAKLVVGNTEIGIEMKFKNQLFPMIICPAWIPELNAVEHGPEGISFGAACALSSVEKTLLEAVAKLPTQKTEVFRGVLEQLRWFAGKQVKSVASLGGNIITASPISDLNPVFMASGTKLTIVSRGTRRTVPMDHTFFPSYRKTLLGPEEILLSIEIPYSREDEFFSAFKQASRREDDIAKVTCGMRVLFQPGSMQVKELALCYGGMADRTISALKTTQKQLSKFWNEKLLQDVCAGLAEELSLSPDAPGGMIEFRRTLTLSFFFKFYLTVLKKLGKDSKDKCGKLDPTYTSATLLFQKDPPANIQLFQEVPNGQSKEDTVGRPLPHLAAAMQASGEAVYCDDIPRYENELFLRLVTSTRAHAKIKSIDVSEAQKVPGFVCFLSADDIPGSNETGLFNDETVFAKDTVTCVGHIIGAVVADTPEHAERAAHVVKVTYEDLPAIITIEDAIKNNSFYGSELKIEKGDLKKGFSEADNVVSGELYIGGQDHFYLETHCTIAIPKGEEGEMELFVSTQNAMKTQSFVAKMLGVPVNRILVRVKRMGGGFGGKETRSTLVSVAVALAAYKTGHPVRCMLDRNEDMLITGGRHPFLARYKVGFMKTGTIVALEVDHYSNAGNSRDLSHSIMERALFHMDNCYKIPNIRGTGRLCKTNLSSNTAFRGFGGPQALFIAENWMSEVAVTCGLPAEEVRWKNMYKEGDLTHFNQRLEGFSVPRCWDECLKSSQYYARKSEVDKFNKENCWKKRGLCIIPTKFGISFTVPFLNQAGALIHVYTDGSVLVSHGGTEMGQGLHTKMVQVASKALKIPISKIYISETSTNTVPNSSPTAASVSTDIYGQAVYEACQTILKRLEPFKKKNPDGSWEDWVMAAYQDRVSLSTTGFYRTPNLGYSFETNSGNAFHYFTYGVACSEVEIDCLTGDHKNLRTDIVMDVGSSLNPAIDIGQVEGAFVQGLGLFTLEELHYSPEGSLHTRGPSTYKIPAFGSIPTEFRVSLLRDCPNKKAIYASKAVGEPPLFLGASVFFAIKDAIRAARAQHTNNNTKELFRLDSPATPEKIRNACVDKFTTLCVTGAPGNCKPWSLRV
# T3 sequence (O42275 24-633): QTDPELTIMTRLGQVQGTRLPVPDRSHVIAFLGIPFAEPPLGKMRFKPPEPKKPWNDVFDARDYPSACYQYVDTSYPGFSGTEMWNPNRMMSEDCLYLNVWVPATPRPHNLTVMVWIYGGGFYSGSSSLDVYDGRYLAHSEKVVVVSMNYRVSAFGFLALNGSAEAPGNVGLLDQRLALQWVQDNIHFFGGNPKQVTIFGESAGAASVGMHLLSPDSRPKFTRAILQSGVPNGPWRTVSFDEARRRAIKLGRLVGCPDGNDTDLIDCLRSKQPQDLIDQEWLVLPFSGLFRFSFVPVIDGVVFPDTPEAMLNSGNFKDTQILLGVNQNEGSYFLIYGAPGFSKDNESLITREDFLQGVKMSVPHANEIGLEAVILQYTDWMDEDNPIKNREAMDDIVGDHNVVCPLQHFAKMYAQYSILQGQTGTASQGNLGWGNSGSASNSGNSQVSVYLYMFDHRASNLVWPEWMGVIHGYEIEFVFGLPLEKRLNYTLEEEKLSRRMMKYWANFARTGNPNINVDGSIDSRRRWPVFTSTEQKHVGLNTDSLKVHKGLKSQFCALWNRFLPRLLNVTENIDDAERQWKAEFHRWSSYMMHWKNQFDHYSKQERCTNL
SMILES,IC50 [1],XOI% ([1]; dose 3.125 µg/mL),XOI% ([1]; dose 6.25 µg/mL),XOI% ([1]; dose 25 µg/mL),XOI% ([1]; dose 50 µg/mL),inhibitory activity for the enzyme AG (in words) [2],AGI% ([2]; dose 3.125 µg/mL),AGI% ([2]; dose 6.25 µg/mL),AGI% ([2]; dose 25 µg/mL),AGI% ([2]; dose 50 µg/mL),AChEI% ([3]; dose 3.125 µg/mL),AChEI% ([3]; dose 6.25 µg/mL),AChEI% ([3]; dose 25 µg/mL),AChEI% ([3]; dose 50 µg/mL),IC50 [3],further results
O=Cc1c[nH]c2ccccc12 [1H-indole-3-carboxaldehyde],13.4 ± 0.39 µM,61.14% and 61.14 ± 0.14 %,67.69% and 67.69 ± 0.34 %,86.49% and 86.49 ± 0.89 %,100% and 100 *** %,no inhibitory activity,0%,0%,0%,0%,0%,0%,0%,0%,,
O=Cc1ccc(O)cc1 [4-hydroxybenzaldehyde],506 ± 16 µM,17.39 ± 0.49%,25.27 ± 0.19%,31.67 ± 0.52%,50.75% and 50.75 ± 0.50%,no inhibitory activity,0%,0%,0%,0%,0%,4.21 ± 0.01%,14.26 ± 0.011%,25.7% and 25.7 ± 0.56%,6890 ± 118 µM,
"c1ccc2[nH]ccc2c1 [Indole, indole]",843 ± 16.7 µM,15.01 ± 0.31%,17.77 ± 0.52%,25.17 ± 0.65%,44.30 ± 1.14%,,51.43 ± 1.06 %,81.49 ± 1.17 %,94.4 ± 1.01 %,100 *** %,0%,9.42 ± 0.07%,37.54 ± 1.26%,51.3 ± 1.67 %,335 ± 13.1 µM,"XOI% [1, 9]: 44.3%; inhibition of proteolytic activity of metalloprotease ([4]; toxin:compound ratio 1:5, not significant): 4.31 ± 1.9; inhibition of proteolytic activity of metalloprotease ([4]; toxin:compound ratio 1:10): 13.54 ± 2.5; AGI% ([2]; dose 3.125 µg/mL, listed as indole): 51.43%; AGI% ([2]; dose 6.25 µg/mL, listed as indole): 81.49%; AGI% ([2]; dose 25 µg/mL, listed as indole): 94.4%; IC50 ([2]; read-out: AG (IC50 µM)): 18.7 ± 1.1 µM; coagulant activity of the compound by itself (in words) (B. asper venom [5]; compound alone, after half an hour of incubation): did not generate coagulant activity; inhibition of the coagulating effect in vitro (in words) (B. asper venom [5]; induced by 1.0 µg of venom): significant in vitro inhibition; maximum delay time for clotting onset (clotting time) (B. asper venom [5]; venom:compound ratio 1:20 w/w, 1.0 µg venom, venom alone 21.6 ± 0.8 s): 99 ± 4.0 s; inhibition of PLA2 activity (given as proteolytic activity inhibition) ([6]; toxin:compound ratio 1:10): 10.0%; inhibition of PLA2 activity (given as proteolytic activity inhibition) ([6]; toxin:compound ratio 1:20): 15.20%; AChEI% [3, 9]: 51.3%; inhibition of the indirect hemolytic activity of the complete venom (in words) (B. asper venom [7]): did not show inhibition; proteolytic activity inhibition of B. asper venom (in words) (B. asper venom [8]; venom:compound ratio 1:10): weak inhibition without significance; proteolytic activity inhibition of B. asper venom (B. asper venom [8]; venom:compound ratio 1:20 w/w): 77.9% ± 5.5"
